Data on two substances can be found in US8748105B2, “Method for selecting a candidate drug compound” (Pepscan Systems B.V., priority 2003, dated 2014).

For test [1], the system named is anti-FSH-β mAb 2. Kind of test: Loopscan: sandwich ELISA of solid-phase cyclized or linear 12-mer FSH β3-loop peptides. The format is binding. The conditions noted are these: solid-phase 12-mer peptides; mAb 2 up to 10 μg/mL. The procedure: FIG. 12: ELISA results of the binding of anti-FSH monoclonal antibody 2 (10 μg/mL) in 3 μL miniwells containing overlapping a) cyclized (with m-dibromoxylene) and b) linear 12-mer peptides of the β3-loop of FSH-beta; Sequence of binding peptide: (AA68-AA79) Ac-CRVPGAAHHADSLC-resin (SEQ ID NO:5).
The formation of peptide loops via reaction of a linear peptide containing two free sulfhydryl groups with 1,3-bis(bromomethyl)benzene scaffold was also carried out on a polypropylene surface grafted with polyacrylic acid (6% solution containing CuSO4, irradiation using γ-radiation at a dose of 12 kGy) and functionalized with amino groups via coupling with t-butyloxycarbonyl-hexamethylene diamine (Boc-HMDA) using dicyclohexylcarbodiimide (DCC) with N-hydroxybenzotriazole (HOBt) and subsequent deprotection of the Boc-groups using trifluoroacetic acid (TFA). Standard Fmoc peptide chemistry was used to synthesize a set of overlapping linear peptides of 14 amino acid long peptides corresponding to the β3-loop of FSH in separate microwells of 3 μL each using our previously developed minicard format. Each peptide was synthesized with a Cys-residue in position 1, followed by the overlapping sequences of the FSH β3-loop (2-13, 3-14, 4-15, etc.) followed by another Cys-residue in the final position. […]
(ELISA stands for enzyme-linked immunosorbent assay.)

Test [2] deals with mAb 2 (anti-FSHβ monoclonal antibody). Kind of test: Binding of looped peptide mimics of FSH-β to anti-FSH-β monoclonal antibody mAb 2 (Kd). From the text:
We used the synthetic strategy for structural fixation of linear peptides as outlined above. We tested the capacity of these small peptide-based beta-FSH mimics to bind to a number of different monoclonal antibodies specific for beta-FSH.

The target in test [3] is mAb 1 (monoclonal antibody specific for beta-FSH). The test is described as follows: Binding of beta-FSH mimics (T4 double-loop constructs) to beta-FSH-specific monoclonal antibody mAb 1 (Kd). An excerpt: For the inhibition of the specific interaction with beta-FSH and its receptor, there is a need for structural mimics of the hormone. Although there is no crystallographic structure describing the interaction of beta-FSH with its receptor, it is very likely that this binding site is discontinuous in nature. We designed and synthesized a number of double-loop peptide construct on a tetrabromo-(T4)scaffold that could be used as beta-FSH mimics. We used the synthetic strategy for structural fixation of linear peptides as outlined above. We tested the capacity of these small peptide-based beta-FSH mimics to bind to a number of different monoclonal antibodies specific for beta-FSH. […] Furthermore, the beta-FSH mimics can be used successfully for the production of antisera that react specifically with beta-FSH.

In test [4] the target is mAb 3468 (anti-beta-CG monoclonal antibody). Kind of test: Binding of beta-CG mimics (T4 double-loop constructs) to monoclonal antibody 3468 (Kd). An excerpt:
For the inhibition of the specific interaction with hCG and its receptor there is a need for compounds which structurally mimic the hormone. […] It is, therefore, likely that binding of beta-CG to the receptor also involves a discontinuous binding on the hormone. Provided is the design and synthesis of small peptide-based beta-CG mimics that strongly bind to monoclonal antibody 3468. We used the synthetic strategy for structural fixation of linear peptides as outline above.
The beta-CG mimics are advantageously used for the production of antisera that react specifically with hCG.

Starred links: 1 amine or outer side, 2 acyl side, 3 side chain; linkers in the order of their positions; H or OH if unused. Positions of bridges follow the written chain, without caps; N, C: chain ends. T2 = dibromobenzene scaffold (1,3-bis(bromomethyl)benzene, m-dibromoxylene) forming thioether links to the two Cys; resin = solid-support resin (cross-linked polystyrene) to which the C-terminal amino acid is attached; mXylylene = c1cc(C[*:1])cc(C[*:2])c1

Take “Ac-CRVPGAAHHADSLC-resin (linker 1-14 via mXylylene (inferred); also: C-terminus resin-bound) [68-79]”: the “binding to anti-FSH-β mAb 2 in sandwich ELISA (in words)” value in test [1] is “binds strongly”.

A word on the Kd: it is the equilibrium constant for the complex coming apart. Consider “c-T2-[Ac-CRVPGAAHHADSLC-NH2] (linker 1-14 via T2 (inferred)) [compound 1]”, for which the Kd in test [2] turned out to be 2500 nM; in test [3], 270 nM; in test [4] it was 15000 nM.
